The experiment concerns the target T1, CDC42 BPA (MRCKA) (Homo sapiens, UniProt Q5VT25).
T1 construct: purchased Thermo Fisher Scientific (Life Technologies) SelectScreen
The experiment is described as follows: SelectScreen Z'LYTE. The class given is biochemical. The gist of the method: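 SelectScreen broad panel; activity (Z'LYTE, Adapta) plus binding formats. ATP: Km app for CSF1R Z'LYTE; 10 for CAMK1 Adapta. Readout = % per kinase.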

T1 sequence (Q5VT25 whole entry): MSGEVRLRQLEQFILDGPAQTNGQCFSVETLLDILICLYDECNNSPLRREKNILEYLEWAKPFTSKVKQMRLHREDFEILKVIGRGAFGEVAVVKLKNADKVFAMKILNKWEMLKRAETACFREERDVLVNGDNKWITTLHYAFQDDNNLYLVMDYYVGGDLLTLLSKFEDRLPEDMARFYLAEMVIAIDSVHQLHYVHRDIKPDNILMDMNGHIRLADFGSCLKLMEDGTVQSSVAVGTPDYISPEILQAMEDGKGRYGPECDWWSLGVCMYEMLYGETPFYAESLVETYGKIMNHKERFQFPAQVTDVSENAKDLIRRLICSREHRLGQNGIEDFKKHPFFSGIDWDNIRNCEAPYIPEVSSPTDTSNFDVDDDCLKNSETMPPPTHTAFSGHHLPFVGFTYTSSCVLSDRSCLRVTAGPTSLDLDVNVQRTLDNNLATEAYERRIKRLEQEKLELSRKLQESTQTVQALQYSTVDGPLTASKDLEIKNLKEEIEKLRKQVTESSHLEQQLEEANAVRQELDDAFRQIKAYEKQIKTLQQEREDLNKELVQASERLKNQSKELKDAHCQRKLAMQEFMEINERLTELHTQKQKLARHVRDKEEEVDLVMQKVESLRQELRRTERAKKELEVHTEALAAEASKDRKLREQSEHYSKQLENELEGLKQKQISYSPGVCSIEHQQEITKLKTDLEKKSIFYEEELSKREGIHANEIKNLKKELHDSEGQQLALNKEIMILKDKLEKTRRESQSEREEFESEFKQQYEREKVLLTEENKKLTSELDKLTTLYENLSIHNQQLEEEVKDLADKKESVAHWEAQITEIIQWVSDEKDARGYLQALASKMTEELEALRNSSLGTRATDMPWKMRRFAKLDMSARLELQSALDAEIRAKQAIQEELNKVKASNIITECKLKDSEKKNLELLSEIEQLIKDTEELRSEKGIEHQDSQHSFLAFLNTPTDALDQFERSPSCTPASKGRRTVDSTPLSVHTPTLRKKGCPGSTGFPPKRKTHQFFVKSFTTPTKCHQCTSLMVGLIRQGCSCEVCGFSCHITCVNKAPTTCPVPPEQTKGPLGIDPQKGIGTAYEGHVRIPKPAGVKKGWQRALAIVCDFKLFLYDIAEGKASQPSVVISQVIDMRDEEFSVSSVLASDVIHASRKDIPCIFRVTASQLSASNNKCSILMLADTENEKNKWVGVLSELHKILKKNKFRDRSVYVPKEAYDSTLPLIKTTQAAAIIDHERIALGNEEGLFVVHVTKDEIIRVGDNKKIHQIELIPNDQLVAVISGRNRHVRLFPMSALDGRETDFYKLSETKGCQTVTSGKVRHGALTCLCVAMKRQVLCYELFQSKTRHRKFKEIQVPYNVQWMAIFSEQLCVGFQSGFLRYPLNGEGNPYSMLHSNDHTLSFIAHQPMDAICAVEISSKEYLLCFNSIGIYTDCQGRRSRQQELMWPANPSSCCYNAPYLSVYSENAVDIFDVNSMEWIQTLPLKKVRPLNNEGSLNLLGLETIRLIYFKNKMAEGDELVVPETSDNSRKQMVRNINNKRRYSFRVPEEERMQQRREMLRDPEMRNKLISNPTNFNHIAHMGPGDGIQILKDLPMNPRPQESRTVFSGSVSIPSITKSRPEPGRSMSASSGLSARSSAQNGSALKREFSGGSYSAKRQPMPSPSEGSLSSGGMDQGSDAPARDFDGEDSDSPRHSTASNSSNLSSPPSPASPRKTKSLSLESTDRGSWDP

Turning to `CN(C(=O)CN1CCOCC1)c1ccc2sc3c(-c4cccc5c(=O)cc(N6CC7CCC(C6)O7)oc45)cccc3c2c1` [NU5455], the inhibition (usually the percentage by which the read-out fell short of the control) at 1 µM was 5%.

The values are drawn from paper PMC6934184, “Selective DNA-PKcs inhibition extends the therapeutic index of localized radiotherapy and chemotherapy” (The Journal of Clinical Investigation, 2019).
